Test results taken from patent publication US20170119640A1, “Methods of Improving Glucose Tolerance, Hair Regrowth, and Bio-Availability” (priority 2015, published 2017).

What was measured:
[1] = test system: female Albino Wistar rats; test: glucose tolerance test; assay type: in vivo, rat; conditions: six month old female Albino Wistar rats; 25, 50, 75 mg/kg body wt daily for four months; 6 h fast, 2 g/kg intraperitoneally, blood at 0-120 min; p<0.01 ResArgin, p<0.05 resveratrol
Protocol: (§1) To determine the efficacy of resveratrol-arginine conjugate, six month old female Albino Wistar rats were divided into seven groups (six rats per group) and given the following daily treatment for four months:
(§2) Group 2: 25 mg ResArgin/kg body wt; Group 3: 50 mg ResArgin/kg body wt; Group 4: 75 mg ResArgin/kg body wt; Group 5: 25 mg Resveratrol/kg body wt; Group 6: 50 mg Resveratrol/kg body wt;
Group 7: 75 mg Resveratrol/kg body wt. In one embodiment, glucose tolerance levels were tested via a glucose tolerance test and analysis was performed. Compared to the Control group, glucose tolerance was improved in the ResArgin and resveratrol groups (p<0.01 and p<0.05 respectively) over the experimental period.
In one embodiment, glucose tolerance tests were performed after having the rats fast for 6 hours and injecting 2 g/kg body weight intraperitoneally. Blood was then collected from the tail vein at 0, 15, 30, 60 and 120 minutes after injection.

[2] = test system: female Albino Wistar rats; test: hair regrowth assay; assay type: in vivo, rat; conditions: six month old female Albino Wistar rats; 25, 50, 75 mg/kg body wt daily for four months; dorsal hair plucked from 1.5 cm×1.5 cm, scored two weeks later from digital photographs
Protocol: as §1, §2
In another embodiment, hair regrowth assay was done and quantified. Compared to the Control group, hair regrowth was improved in the ResArgin and resveratrol groups over the experimental period.
In the hair regrowth assay, dorsal hair was removed by plucking from a square of approximately 1.5 cm×1.5 cm. Hair growth and re-growth was scored two weeks later on the basis of digital photographs.

Compound: Oc1ccc(C=Cc2cc(O)cc(O)c2)cc1 [resveratrol]
- glucose tolerance compared to the Control group [1]: improved
- hair regrowth compared to the Control group [2]: improved
